Experimental data published in US8119662B2, “Crystalline compounds” (Generics [UK] Limited, priority 2005, dated 2012).
Counter-ions that a name gives are not always drawn.

How the values were obtained:
[1] = Polymorphic stability following grinding and tablet punching; type: physicochemical
[2] = Compressibility for dosage form preparation (e.g. tablets); type: physicochemical

## C[C@H](CSC(=O)c1ccccc1)C(=O)N1C[C@@H](Sc2ccccc2)C[C@H]1C(=O)O [(4S)-1-[(2S)-3-(benzoylthio)-2-methylpropionyl]-4-(phenylthio)-L-proline calcium salt]
[1]
  stability (changes in polymorphic form): no changes in polymorphic form
[2]
  compressibility: excellent compressibility
